{"source": "ChEMBL document CHEMBL1201862", "about": "“PubChem BioAssay data set” (2004)", "key": {"[1]": {"assay": "viability loss in HeLa cells – cytotoxicity control for MgcRacGAP inhibitor project, dose response (AID 624300)", "format": "functional"}, "[2]": {"target": "T1, Rac GTPase-activating protein 1 (Homo sapiens, UniProt Q9H0H5)", "T1 sequence (Q9H0H5 whole entry)": "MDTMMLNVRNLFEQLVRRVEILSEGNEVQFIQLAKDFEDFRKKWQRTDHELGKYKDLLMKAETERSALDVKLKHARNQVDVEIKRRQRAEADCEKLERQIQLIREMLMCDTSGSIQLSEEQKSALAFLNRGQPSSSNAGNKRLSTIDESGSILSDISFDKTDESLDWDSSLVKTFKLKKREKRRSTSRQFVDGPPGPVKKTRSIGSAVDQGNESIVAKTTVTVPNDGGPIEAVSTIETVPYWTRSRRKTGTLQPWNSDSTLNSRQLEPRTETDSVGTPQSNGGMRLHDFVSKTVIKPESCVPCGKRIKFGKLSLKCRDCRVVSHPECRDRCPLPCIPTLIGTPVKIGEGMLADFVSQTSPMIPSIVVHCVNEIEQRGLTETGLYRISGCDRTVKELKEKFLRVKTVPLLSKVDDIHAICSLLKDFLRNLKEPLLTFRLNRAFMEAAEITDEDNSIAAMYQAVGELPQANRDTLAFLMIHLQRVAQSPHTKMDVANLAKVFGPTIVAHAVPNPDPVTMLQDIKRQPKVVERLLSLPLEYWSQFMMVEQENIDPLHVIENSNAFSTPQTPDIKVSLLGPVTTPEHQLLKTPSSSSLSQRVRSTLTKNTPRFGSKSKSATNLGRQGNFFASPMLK", "assay": "blockers of MgcRacGAP-driven Rac1 GTP hydrolysis – biochemical, ADP Hunter fluorescence, primary and confirmatory, confirmation (AID 624330)", "format": "functional"}, "[3]": {"assay": "Luminescence Cell-Based Dose Retest to Confirm Inhibitors of Cancer Stem Cells. [Related pubchem assays (depositor defined):AID2717, AID2721]", "format": "functional", "settings": "Homo sapiens"}, "[4]": {"tested_on": "Vero", "assay": "viability of Vero cells under compound – cytotoxicity control for flavivirus capping enzyme inhibitors (AID 588742)", "format": "functional", "settings": "Chlorocebus sabaeus"}, "[5]": {"target": "Genome polyprotein (dengue virus type 2, UniProt P29990)", "sequence (P29990 2492-3391 limits assumed)": "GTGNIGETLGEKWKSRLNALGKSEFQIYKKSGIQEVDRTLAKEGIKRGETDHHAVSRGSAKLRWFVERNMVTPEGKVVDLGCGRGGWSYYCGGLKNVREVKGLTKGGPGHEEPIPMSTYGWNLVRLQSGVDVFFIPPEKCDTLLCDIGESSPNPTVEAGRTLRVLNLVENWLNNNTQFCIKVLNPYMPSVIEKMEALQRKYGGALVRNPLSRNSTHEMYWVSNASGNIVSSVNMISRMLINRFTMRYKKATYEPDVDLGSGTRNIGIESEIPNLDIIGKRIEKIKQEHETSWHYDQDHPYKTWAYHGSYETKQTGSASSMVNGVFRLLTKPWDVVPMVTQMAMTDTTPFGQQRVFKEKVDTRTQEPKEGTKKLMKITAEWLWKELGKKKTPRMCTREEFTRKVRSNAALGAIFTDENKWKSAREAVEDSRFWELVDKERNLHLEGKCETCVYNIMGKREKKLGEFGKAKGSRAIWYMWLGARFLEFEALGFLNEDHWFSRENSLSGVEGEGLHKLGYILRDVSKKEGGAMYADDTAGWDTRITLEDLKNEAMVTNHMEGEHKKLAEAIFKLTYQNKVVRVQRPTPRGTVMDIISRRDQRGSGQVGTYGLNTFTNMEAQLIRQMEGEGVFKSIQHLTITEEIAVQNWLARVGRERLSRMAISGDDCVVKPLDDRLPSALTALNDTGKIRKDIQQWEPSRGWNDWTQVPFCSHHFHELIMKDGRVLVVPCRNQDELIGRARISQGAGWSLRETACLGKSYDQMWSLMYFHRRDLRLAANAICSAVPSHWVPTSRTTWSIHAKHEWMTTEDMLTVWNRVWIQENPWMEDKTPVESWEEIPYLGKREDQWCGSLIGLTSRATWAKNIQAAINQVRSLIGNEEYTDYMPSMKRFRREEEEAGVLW", "assay": "flavivirus cap methylation enzyme inhibition – biochemical, confirmation dose response, primary screen (AID 588689)", "format": "functional"}, "[6]": {"assay": "Dd2 malaria parasite growth inhibition potency – SYBR Green, dry powder samples, dose response (AID 1159566)", "format": "functional, cell-based"}, "[7]": {"assay": "growth inhibition of yeast DHODH-expressing 3D7 parasites – SYBR Green, dry powder samples, dose response (AID 1159570);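 note: parasite growth measured after 72 hours of compound exposure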", "format": "functional, cell-based"}, "[8]": {"assay": "P. falciparum Dd2 growth inhibitors, dose response, SYBR Green, cherry-picked samples (AID 1159567)", "format": "functional, cell-based"}, "[9]": {"assay": "growth inhibition of PfATP4-mutant resistant parasites – NITD609-resistant line, SYBR Green, dry powder, dose response (AID 1159571);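 note: parasites synchronized at ring stage by sorbitol before testing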", "format": "functional, cell-based"}, "[10]": {"assay": "Luminescence Cell-Based Dose Response HTS to Identify Inhibitors of 5'UTR Stem-Loop Driven Prion Protein mRNA Translation in H4 Neuroglioblastoma Cells. [Related pubchem assays: 1827 (Project Summary), 1813 (Primary HTS)]", "format": "functional"}, "[11]": {"assay": "luciferase reporter signal suppression in cells – H4 neuroglioma cells, luminescence, dose response (AID 1990)", "format": "functional, cell-based"}, "[12]": {"assay": "alpha-synuclein stem-loop luciferase translation blockers – H4 neuroglioma cells, luminescence, confirmation (AID 1988)", "format": "functional, cell-based"}, "[13]": {"target": "T2, DNA repair protein RAD52 homolog (Homo sapiens, UniProt P43351)", "T2 sequence (P43351 whole entry)": "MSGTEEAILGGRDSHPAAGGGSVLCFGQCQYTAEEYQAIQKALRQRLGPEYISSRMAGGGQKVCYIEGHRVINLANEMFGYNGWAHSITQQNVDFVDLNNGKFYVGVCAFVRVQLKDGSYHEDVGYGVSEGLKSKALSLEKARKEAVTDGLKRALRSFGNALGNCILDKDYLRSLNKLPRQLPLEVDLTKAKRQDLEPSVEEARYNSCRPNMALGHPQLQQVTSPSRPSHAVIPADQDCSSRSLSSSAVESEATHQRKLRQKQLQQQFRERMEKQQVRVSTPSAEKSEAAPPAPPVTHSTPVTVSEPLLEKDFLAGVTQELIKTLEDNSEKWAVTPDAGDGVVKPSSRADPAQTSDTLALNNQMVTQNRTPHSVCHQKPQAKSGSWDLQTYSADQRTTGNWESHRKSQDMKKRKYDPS", "format": "functional, biochemical"}, "[14]": {"target": "Estrogen receptor beta (Homo sapiens, UniProt Q92731)", "sequence (Q92731 whole entry)": "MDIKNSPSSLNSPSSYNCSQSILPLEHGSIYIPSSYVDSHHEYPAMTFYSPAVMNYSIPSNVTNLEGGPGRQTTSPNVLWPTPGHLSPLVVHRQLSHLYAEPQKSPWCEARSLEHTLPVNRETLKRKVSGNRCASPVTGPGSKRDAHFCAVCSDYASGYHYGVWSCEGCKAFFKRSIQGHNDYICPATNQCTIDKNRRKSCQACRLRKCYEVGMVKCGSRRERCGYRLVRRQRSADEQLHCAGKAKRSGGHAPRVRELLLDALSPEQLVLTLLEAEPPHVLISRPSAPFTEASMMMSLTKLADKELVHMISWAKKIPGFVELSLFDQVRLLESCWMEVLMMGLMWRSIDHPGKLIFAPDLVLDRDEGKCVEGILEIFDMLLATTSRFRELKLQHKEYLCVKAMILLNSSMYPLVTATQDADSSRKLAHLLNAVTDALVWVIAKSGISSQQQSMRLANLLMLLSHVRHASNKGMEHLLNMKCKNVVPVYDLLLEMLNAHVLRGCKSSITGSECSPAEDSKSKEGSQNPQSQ"}}, "note": "The source made the active and inactive calls.", "data": [{"compound": "Oc1ccc(-c2csc(Nc3ccccn3)n2)c(O)c1", "values": [{"measurement": "CC50", "setting": "[1]", "result": "100 µM (active)"}, {"measurement": "IC50", "setting": "[2]", "result": "59.5 µM (active)"}, {"measurement": "AC50", "setting": "[3]", "result": "1.74 µM (active)"}]}, {"compound": "Cc1[nH]n(-c2ncc(-c3ccc(Cl)cc3)s2)c(=O)c1C(c1ccc(Cl)cc1)C(C#N)C#N", "note": "(stereo unspecified)", "values": [{"measurement": "CC50", "setting": "[4]", "result": "> 40 µM (active)"}, {"measurement": "IC50", "setting": "[5]", "result": "23 µM (active)"}, {"measurement": "AC50", "setting": "[3]", "result": "2.97 µM (active)"}]}, {"compound": "C[C@H]1CN([C@@H](C)CO)C(=O)c2cc(NC(=O)Nc3ccc(C(F)(F)F)cc3)ccc2O[C@@H]1CN(C)C(=O)Nc1cccc2ccccc12", "values": [{"measurement": "AC50", "setting": "[6]", "result": "1.37 µM (active)"}, {"measurement": "AC50", "setting": "[7]", "result": "1.42 µM (active)"}, {"measurement": "AC50", "setting": "[8]", "result": "2.41 µM (active)"}, {"measurement": "AC50", "setting": "[9]", "result": "1.56 µM (active)"}]}, {"compound": "O=C(NNC(=O)c1ccc2ncccc2c1)c1ccc(Cl)cc1", "values": [{"measurement": "EC50", "setting": "[10]", "result": "> 120 µM (not active)"}, {"measurement": "EC50", "setting": "[11]", "result": "> 120 µM (not active)"}, {"measurement": "EC50", "setting": "[12]", "result": "> 120 µM (not active)"}]}, {"compound": "CCOc1cccc2sc(N(CCCN(C)C)C(=O)c3ccc(C(=O)c4ccccc4)cc3)nc12", "values": [{"measurement": "AC50", "setting": "[13]", "result": "17.3 µM (active)"}]}, {"compound": "COc1ccc(/C=N/NC(=O)c2cccnc2)cc1COc1ccc([N+](=O)[O-])c(C)c1", "values": [{"measurement": "EC50", "setting": "[10]", "result": "28.9 µM (active)"}, {"measurement": "EC50", "setting": "[11]", "result": "> 120 µM (not active)"}, {"measurement": "EC50", "setting": "[12]", "result": "8.08 µM (active)"}]}, {"compound": "CCn1c(NN)nc2sc3c(c2c1=O)CCC3", "values": [{"measurement": "IC50", "setting": "[14]", "result": "> 50 µM (not active)"}]}, {"compound": "COc1cc2cc(C(c3nnnn3C3CCCCC3)N(C)C3CCCCC3)c(O)nc2cc1OC", "note": "(stereo unspecified)", "values": [{"measurement": "EC50", "setting": "[10]", "result": "> 120 µM (not active)"}, {"measurement": "EC50", "setting": "[11]", "result": "15.7 µM (active)"}, {"measurement": "EC50", "setting": "[12]", "result": "> 120 µM (not active)"}]}]}
